Data: PubChem BioAssay AID330 (DTP/NCI, 2004)
Where “and” joins values, the source holds several entries; their conditions need not be identical. Equal values may be shown once. Inconclusive results and toxic doses are left out. Rule for the calls: active = survival T/C of 150% or more; inactive = T/C below 125% in these data.

Tested on: P388 leukemia ip, CD2F1 mice, survival T/C
Experiment: NCI In Vivo Anticancer Drug Screen. Data for tumor model P388 Leukemia (intraperitoneal) in CD2F1 (CDF1) mice
Conditions: endpoint: median survival time, higher = longer survival
Procedure, shortened: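 Mice carrying the transplanted tumor received test compound or vehicle. Survival was recorded in each group, and the value is the treated-group measurement divided by that of the vehicle-treated control group.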

[1] = dose: 60.0 mg/kg/injection, schedule: Q01DX005 (ip), vehicle: saline with Tween-80
[2] = dose: 120.0 mg/kg/injection, schedule: Q01DX005 (ip), vehicle: saline with Tween-80
[3] = dose: 240.0 mg/kg/injection, schedule: Q01DX005 (ip), vehicle: saline with Tween-80
[4] = dose: 50.0 mg/kg/injection, schedule: Q01DX009 (ip), vehicle: saline with Tween-80
[5] = dose: 100.0 mg/kg/injection, schedule: Q01DX009 (ip), vehicle: saline with Tween-80
[6] = dose: 200.0 mg/kg/injection, schedule: Q01DX009 (ip), vehicle: saline with Tween-80
[7] = dose: 12.5 mg/kg/injection, schedule: Q04DX003 (ip), vehicle: Klucel (hydroxypropylcellulose) (HPC)
[8] = dose: 25.0 mg/kg/injection, schedule: Q04DX003 (ip), vehicle: Klucel (hydroxypropylcellulose) (HPC)
[9] = dose: 50.0 mg/kg/injection, schedule: Q01DX005 (ip), vehicle: saline with Tween-80
[10] = dose: 100.0 mg/kg/injection, schedule: Q01DX005 (ip), vehicle: saline with Tween-80
[11] = dose: 200.0 mg/kg/injection, schedule: Q01DX005 (ip), vehicle: saline with Tween-80
[12] = dose: 60.0 mg/kg/injection, schedule: Q01DX005 (ip), vehicle: Klucel (hydroxypropylcellulose) (HPC)
[13] = dose: 120.0 mg/kg/injection, schedule: Q01DX005 (ip), vehicle: Klucel (hydroxypropylcellulose) (HPC)
[14] = dose: 240.0 mg/kg/injection, schedule: Q01DX005 (ip), vehicle: Klucel (hydroxypropylcellulose) (HPC)
[15] = dose: 6.25 mg/kg/injection, schedule: Q01DX009 (ip), vehicle: saline with Tween-80
[16] = dose: 12.5 mg/kg/injection, schedule: Q01DX009 (ip), vehicle: saline with Tween-80
[17] = dose: 50.0 mg/kg/injection, schedule: Q01DX009 (ip), vehicle: saline
[18] = dose: 100.0 mg/kg/injection, schedule: Q01DX009 (ip), vehicle: saline
[19] = dose: 200.0 mg/kg/injection, schedule: Q01DX009 (ip), vehicle: saline

Measured: T/C

CCOC(=O)C1C(c2cccc(OC)c2O)c2cc3c(cc2OC1(C)N1CCCC1)OCO3 (configuration not stated)
inactive: [1] 99 % of control | [2] 92 % of control | [3] 89 % of control

CNCCc1c(C2C3C(C=C(C)CC3(C)C)c3c(CCNC)c4ccccc4n32)[nH]c2ccccc12 (configuration not stated)
inactive: dose: 4.0 mg/kg/injection, schedule: Q01DX009 (ip), vehicle: saline 107 % of control | dose: 8.0 mg/kg/injection, schedule: Q01DX009 (ip), vehicle: saline 110 % of control | dose: 16.0 mg/kg/injection, schedule: Q01DX009 (ip), vehicle: saline 115 % of control | dose: 32.0 mg/kg/injection, schedule: Q01DX009 (ip), vehicle: saline 114 % of control

CC(=O)OC1C2C=CC1C=C2 (configuration not stated)
inactive: [4] 104 % of control | [5] 93 % of control | [6] 100 % of control

CC([Se])=Nc1ccc(Br)cc1
inactive: [7] 100 % of control | [8] 100 % of control

O=C(N/N=C/c1ccccc1O)c1ccccc1O
inactive: [9] 100 % of control | [10] 96 % of control | [11] 99 % of control

CO[C@@]1([C@@H](Cl)c2ccccc2)C(=O)N(C)/C(=C\c2ccccc2)C(=O)N1C
inactive: [12] 105 % of control | [13] 92 % of control | [14] 97 % of control

COCC1OCCCO1
inactive: dose: 60.0 mg/kg/injection, schedule: Q01DX005 (ip), vehicle: saline 102 % of control | dose: 120.0 mg/kg/injection, schedule: Q01DX005 (ip), vehicle: saline 98 % of control | dose: 240.0 mg/kg/injection, schedule: Q01DX005 (ip), vehicle: saline 97 % of control

Cc1ccc(C)c(NC(=O)CCC(=O)C(C#N)c2cccc3ccccc23)c1 (configuration not stated)
inactive: [1] 104 % of control | [2] 104 % of control | [3] 105 % of control

CCOC(=O)SC(=S)OCC
inactive: [15] 108 % of control | [16] 114 % of control | dose: 25.0 mg/kg/injection, schedule: Q01DX009 (ip), vehicle: saline with Tween-80 100 % of control | [4] 87 % of control

COc1cc2c(c(=O)c3ccccc3n2C)c2c1c(=O)c1ccccc1n2C
inactive: [12] 96 % of control | [13] 98 % of control

COc1nc2[nH]ccc2c(=O)n1C
inactive: [1] 101 % of control | [2] 92 % of control | [3] 89 % of control

c1ccc2c(c1)ccc1c(NCCCCNc3c4ccccc4nc4c3ccc3ccccc34)c3ccccc3nc12
inactive: [15] 107 % of control | [16] 107 % of control

[N-]=[N+]=NCC1OC(n2cnc3c(=O)[nH]c(N)nc32)C(O)C1O (configuration not stated)
inactive: [12] 107 % of control | [13] 107 % of control | [14] 106 % of control

ON1c2ccc3ccccc3c2C=CC1(c1ccccc1)c1ccccc1
inactive: [9] 103 % of control | [10] 103 % of control | [11] 97 % of control

Cc1ccccc1-n1c(SCC(=O)NC(=O)Nc2cccc(Cl)c2)nc2c(Br)cc(Br)cc2c1=O
inactive: [12] 99 % of control | [13] 101 % of control | [14] 87 % of control

O=C(Nc1ccc(-c2cn3ccccc3n2)cc1)c1ccccc1O
inactive: [4] 88 % of control | [5] 87 % of control | [6] 101 % of control

CCCCCCCOc1ccc(C(=O)O)cc1
inactive: dose: 12.5 mg/kg/injection, schedule: Q01DX009 (ip), vehicle: Klucel (hydroxypropylcellulose) (HPC) 105 % of control | dose: 25.0 mg/kg/injection, schedule: Q01DX009 (ip), vehicle: Klucel (hydroxypropylcellulose) (HPC) 111 % of control | dose: 50.0 mg/kg/injection, schedule: Q01DX009 (ip), vehicle: Klucel (hydroxypropylcellulose) (HPC) 107 % of control

COC(=O)c1nn(-c2ccc(Cl)cc2)c2nc3ccccc3c-2c1C(=O)OC
inactive: dose: 100.0 mg/kg/injection, schedule: Q01DX001 (ip), vehicle: saline with Tween-80 96 % of control | dose: 200.0 mg/kg/injection, schedule: Q01DX001 (ip), vehicle: saline with Tween-80 115 % of control | dose: 400.0 mg/kg/injection, schedule: Q01DX001 (ip), vehicle: saline with Tween-80 96 % of control

Cc1cc(N)c(C)c(Br)c1C
inactive: [4] 106 % of control | [5] 99 % of control | [6] 106 % of control

CC(C)(CO)CS
inactive: [4] 99 % of control | [5] 100 % of control | [6] 97 % of control

CC1CCCCC12C(C#N)(C#N)C2(C#N)C#N (configuration not stated)
inactive: [7] 101 % of control | [8] 102 % of control

C/C=C1/CN2C3C[C@@]45c6cc(OC)c(OC)cc6NC4(O3)C2CC1C5C(=O)OC (some centres not stated)
inactive: dose: 5.25 mg/kg/injection, schedule: Q01DX005 (ip), vehicle: Klucel (hydroxypropylcellulose) (HPC) 102 % of control | dose: 10.5 mg/kg/injection, schedule: Q01DX005 (ip), vehicle: Klucel (hydroxypropylcellulose) (HPC) 102 % of control | dose: 21.0 mg/kg/injection, schedule: Q01DX005 (ip), vehicle: Klucel (hydroxypropylcellulose) (HPC) 98 % of control | dose: 42.0 mg/kg/injection, schedule: Q01DX005 (ip), vehicle: Klucel (hydroxypropylcellulose) (HPC) 99 % of control

C=C(C)C1CC2=C(C(=O)OC)C=C(O2)C(C(=C)C)C2C=C(C(=O)O2)C2OC12 (configuration not stated)
inactive: dose: 12.5 mg/kg/injection, schedule: Q01DX005 (ip), vehicle: saline + alcohol 99 % of control | dose: 25.0 mg/kg/injection, schedule: Q01DX005 (ip), vehicle: saline + alcohol 103 % of control | dose: 50.0 mg/kg/injection, schedule: Q01DX005 (ip), vehicle: saline + alcohol 97 % of control | dose: 100.0 mg/kg/injection, schedule: Q01DX005 (ip), vehicle: saline + alcohol 108 % of control

Cc1ccc(C2OC(c3ccc(C)cc3)C(C)C(=O)C2C)cc1 (configuration not stated)
inactive: [17] 90 % of control | [18] 94 % of control | [19] 99 % of control

CC(C)CC(=O)CC(c1ccccc1)C(C(=O)/C=C/c1ccccc1)C(C)C (configuration not stated)
inactive: dose: 12.5 mg/kg/injection, schedule: Q01DX005 (ip), vehicle: saline with Tween-80 94 % of control | dose: 25.0 mg/kg/injection, schedule: Q01DX005 (ip), vehicle: saline with Tween-80 94 % of control | [9] 87 % of control and 92 % of control

CC(C)(C)c1cc(C(O)(C(F)(F)F)C(F)(F)F)c(S)c(C(O)(C(F)(F)F)C(F)(F)F)c1
inactive: dose: 3.12 mg/kg/injection, schedule: Q01DX005 (ip), vehicle: suspension in saline 103 % of control | dose: 6.25 mg/kg/injection, schedule: Q01DX005 (ip), vehicle: suspension in saline 103 % of control | dose: 12.5 mg/kg/injection, schedule: Q01DX005 (ip), vehicle: suspension in saline 103 % of control | dose: 25.0 mg/kg/injection, schedule: Q01DX005 (ip), vehicle: suspension in saline 110 % of control and 112 % of control

CC(=O)NC(Cc1ccsc1)C(=O)O (configuration not stated)
inactive: [17] 108 % of control | [18] 92 % of control | [19] 99 % of control
